Results from ChEMBL document CHEMBL1201862, “PubChem BioAssay data set” (2004).
Active and inactive are the calls of the source.

Columns and labels:
[1] = inhibitors of firefly luciferase expression or activity, dose response, H4 neuroglioma cells, luminescence (AID 1990); format: functional, cell-based
[2] = inhibitors of SNCA 5'UTR-driven reporter translation, confirmation, H4 neuroglioma cells, luminescence (AID 1988); format: functional, cell-based
[3] = inhibitors of intracellular T. cruzi replication, confirmation, NIH3T3 host cells, beta-gal luminescence (AID 2044); format: functional, cell-based;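 note: intracellular parasites grown in NIH/3T3 mouse fibroblasts as host cells; luminescent beta-galactosidase reporter signal from transgenic T. cruzi replicating inside host cells; inhibitors lower the luminescence signal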
[4] = cytotoxicity toward NIH3T3 fibroblasts, dose response, counter-screen, cell-based, ATP luminescence, mouse fibroblasts (AID 2010); format: functional;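 note: cells exposed to compound for about 90 hours before reading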
[5] = molecular target: T1, Rac GTPase-activating protein 1 (Homo sapiens, UniProt Q9H0H5); assay: MgcRacGAP GTPase-activating activity inhibitors, confirmation, biochemical, ADP Hunter fluorescence, primary and confirmatory (AID 624330); format: functional
T1 sequence (Q9H0H5 whole entry): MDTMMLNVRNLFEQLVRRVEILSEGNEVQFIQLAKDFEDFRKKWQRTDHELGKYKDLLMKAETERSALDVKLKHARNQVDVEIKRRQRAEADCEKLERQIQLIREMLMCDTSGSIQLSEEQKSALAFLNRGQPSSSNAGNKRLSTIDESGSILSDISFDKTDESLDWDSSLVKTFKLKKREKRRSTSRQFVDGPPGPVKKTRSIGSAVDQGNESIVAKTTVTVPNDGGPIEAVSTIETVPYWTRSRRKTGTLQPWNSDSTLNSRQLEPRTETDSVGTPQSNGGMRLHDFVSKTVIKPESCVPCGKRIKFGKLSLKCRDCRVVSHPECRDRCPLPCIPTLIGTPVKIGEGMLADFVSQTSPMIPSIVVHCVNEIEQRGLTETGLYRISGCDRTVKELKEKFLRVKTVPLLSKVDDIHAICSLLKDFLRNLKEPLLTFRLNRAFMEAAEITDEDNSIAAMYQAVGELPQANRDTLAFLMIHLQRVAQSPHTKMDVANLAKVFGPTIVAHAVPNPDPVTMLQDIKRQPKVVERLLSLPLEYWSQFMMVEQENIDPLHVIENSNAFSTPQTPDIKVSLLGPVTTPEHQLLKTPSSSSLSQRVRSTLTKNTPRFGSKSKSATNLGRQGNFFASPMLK

[6] = molecular target: T2, Polyadenylate-binding protein 1 (Homo sapiens, UniProt P11940); assay: PABP1 MLLE–PAM2 interaction inhibitors, dose response, miRNA deadenylation inhibitor project, biochemical, fluorescence polarization, Cy5-PAM2 peptide, secondary (AID 602260); format: functional; details: read-out: IC50_Mean
T2 sequence (P11940 whole entry): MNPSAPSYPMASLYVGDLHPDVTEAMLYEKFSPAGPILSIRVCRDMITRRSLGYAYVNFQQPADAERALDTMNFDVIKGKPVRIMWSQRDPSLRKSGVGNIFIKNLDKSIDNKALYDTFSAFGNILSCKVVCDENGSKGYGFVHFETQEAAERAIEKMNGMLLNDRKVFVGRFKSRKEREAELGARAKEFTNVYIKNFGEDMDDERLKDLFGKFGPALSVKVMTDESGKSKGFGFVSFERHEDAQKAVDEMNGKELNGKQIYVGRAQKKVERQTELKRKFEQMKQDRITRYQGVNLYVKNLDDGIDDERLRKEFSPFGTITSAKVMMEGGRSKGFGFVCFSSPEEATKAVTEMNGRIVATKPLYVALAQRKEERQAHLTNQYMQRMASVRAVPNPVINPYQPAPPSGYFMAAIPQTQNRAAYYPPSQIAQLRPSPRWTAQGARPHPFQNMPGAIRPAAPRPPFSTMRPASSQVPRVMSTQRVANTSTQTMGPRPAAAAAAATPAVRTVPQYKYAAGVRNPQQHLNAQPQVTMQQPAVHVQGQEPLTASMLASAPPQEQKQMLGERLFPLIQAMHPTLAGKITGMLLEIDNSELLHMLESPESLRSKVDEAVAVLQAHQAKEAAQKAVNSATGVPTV

[7] = molecular target: T2, Polyadenylate-binding protein 1; assay: PABP1 MLLE–PAM2 binding inhibitor potency, dose response, biochemical, fluorescence polarization, FITC-PAM2 peptide (AID 602259); format: functional; details: read-out: IC50_Mean
[8] = molecular target: T3, Heat shock factor protein 1 (Mus musculus, UniProt P38532); assay: inhibition of MG132-induced HSE-luciferase signal, confirmation, cell-based, NIH3T3, luminescence, dose retest (AID 2382); format: functional;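 note: NIH3T3 fibroblasts with HSF1-driven luciferase reporter stressed by proteasome inhibitor MG132; luminescence from HSF1-driven luciferase expression after 8 hours of MG132 stress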
T3 sequence (P38532 whole entry): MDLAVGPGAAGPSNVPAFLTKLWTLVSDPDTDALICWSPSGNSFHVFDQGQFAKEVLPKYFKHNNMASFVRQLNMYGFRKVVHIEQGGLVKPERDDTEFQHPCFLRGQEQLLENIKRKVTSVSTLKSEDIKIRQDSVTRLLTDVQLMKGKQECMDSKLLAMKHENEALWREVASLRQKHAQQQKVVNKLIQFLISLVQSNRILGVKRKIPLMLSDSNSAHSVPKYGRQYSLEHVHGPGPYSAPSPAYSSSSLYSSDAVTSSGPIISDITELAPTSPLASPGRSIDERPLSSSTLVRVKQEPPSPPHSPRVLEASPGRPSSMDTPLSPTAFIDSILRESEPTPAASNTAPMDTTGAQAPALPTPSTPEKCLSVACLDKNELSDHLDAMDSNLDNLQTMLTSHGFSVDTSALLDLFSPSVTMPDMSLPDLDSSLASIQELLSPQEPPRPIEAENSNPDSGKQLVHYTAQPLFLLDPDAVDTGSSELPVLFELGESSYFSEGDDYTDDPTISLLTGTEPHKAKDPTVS

Cytochrome P450 2D6 = Cytochrome P450 2D6 (Homo sapiens, UniProt P10635);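 note: CYP2D6 member of a cytochrome P450 panel assay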
Sequence of Cytochrome P450 2D6 (P10635 whole entry): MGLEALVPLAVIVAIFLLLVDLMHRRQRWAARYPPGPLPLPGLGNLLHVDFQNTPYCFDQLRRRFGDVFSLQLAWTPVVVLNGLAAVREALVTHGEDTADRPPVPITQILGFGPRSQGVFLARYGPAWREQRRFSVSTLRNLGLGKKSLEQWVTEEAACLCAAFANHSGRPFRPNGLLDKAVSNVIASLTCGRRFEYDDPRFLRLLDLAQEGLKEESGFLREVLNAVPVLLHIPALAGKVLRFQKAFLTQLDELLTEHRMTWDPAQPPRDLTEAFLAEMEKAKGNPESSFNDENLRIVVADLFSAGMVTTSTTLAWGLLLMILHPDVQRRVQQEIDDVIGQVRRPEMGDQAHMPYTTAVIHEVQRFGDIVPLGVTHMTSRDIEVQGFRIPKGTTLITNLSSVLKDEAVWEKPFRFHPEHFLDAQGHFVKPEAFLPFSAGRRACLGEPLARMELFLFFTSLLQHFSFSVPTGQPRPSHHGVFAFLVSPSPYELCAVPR

Cytochrome P450 3A4 = Cytochrome P450 3A4 (Homo sapiens, UniProt P08684);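 note: CYP3A4 tested as one member of a cytochrome P450 panel screen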
Sequence of Cytochrome P450 3A4 (P08684 whole entry): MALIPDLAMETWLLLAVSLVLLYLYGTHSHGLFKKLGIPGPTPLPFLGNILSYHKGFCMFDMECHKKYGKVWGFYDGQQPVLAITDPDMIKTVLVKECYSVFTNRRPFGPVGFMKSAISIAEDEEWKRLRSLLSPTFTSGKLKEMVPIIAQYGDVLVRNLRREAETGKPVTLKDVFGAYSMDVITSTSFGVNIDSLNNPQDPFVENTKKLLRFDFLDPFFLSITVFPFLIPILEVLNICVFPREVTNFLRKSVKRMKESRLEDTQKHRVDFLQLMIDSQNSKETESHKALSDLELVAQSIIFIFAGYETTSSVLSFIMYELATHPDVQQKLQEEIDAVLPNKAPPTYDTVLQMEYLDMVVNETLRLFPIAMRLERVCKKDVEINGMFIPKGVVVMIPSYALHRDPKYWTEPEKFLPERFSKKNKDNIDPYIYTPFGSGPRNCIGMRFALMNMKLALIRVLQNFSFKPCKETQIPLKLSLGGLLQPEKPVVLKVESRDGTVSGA

[9] = Luminescence Cell-Based Dose Retest to Confirm Inhibitors of Cancer Stem Cells. [Related pubchem assays (depositor defined):AID2717, AID2721]; format: functional; details: Homo sapiens
Cytochrome P450 2C19 = Cytochrome P450 2C19 (Homo sapiens, UniProt P33261); assay: Cytochrome panel assay with activity outcomes. Panel member name: p450-cyp2c19 Compounds with AC50 equal or less than 10 uM are considered active; format: functional; details: read-out: AC50
Sequence of Cytochrome P450 2C19 (P33261 whole entry): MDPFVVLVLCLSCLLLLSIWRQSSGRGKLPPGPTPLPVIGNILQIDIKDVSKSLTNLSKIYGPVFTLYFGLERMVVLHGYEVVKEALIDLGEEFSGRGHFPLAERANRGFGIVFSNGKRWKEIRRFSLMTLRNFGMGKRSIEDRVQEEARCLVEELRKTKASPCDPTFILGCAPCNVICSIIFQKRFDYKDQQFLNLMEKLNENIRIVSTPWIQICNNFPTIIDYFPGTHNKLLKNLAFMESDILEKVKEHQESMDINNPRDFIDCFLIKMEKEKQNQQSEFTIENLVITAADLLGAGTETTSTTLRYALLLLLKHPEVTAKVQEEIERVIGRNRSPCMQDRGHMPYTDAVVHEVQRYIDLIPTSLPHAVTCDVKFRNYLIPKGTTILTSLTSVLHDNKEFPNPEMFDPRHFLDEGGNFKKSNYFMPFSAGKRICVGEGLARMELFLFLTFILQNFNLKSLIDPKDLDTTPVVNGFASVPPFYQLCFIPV

Cytochrome P450 2C9 = Cytochrome P450 2C9 (Homo sapiens, UniProt P11712)
Sequence of Cytochrome P450 2C9 (P11712 whole entry): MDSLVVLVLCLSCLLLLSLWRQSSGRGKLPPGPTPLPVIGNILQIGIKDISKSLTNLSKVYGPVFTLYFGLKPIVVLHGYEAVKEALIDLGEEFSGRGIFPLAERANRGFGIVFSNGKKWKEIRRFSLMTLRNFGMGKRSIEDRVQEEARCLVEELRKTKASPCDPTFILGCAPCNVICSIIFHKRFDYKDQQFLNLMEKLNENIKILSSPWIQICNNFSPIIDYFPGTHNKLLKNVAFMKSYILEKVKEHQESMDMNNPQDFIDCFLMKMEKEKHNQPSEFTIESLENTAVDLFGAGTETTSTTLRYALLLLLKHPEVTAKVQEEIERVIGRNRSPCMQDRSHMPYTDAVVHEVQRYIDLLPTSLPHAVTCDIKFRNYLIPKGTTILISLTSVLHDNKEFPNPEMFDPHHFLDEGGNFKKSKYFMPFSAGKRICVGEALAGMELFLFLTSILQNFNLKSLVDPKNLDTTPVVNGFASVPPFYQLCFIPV

[10] = tested on: Streptococcus sp. 'group A'; assay: growth inhibition of control SK(-) GAS strain, dose response, counter-screen for streptokinase expression inhibitor project, luminescence, kanamycin, BacTiterGlo, confirmation (AID 1900); format: functional, organism-based
Streptokinase A = molecular target: T4, Streptokinase A (Streptococcus pyogenes serotype M1, UniProt P10520); assay: S. pyogenes streptokinase expression inhibitors, potency, dose response, plasminogen activation absorbance, OD405 (AID 1914); format: functional, Streptococcus pyogenes M1 GAS;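 note: secreted streptokinase activity via plasminogen activation per viability signal from cell pellet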
T4 sequence (P10520 whole entry): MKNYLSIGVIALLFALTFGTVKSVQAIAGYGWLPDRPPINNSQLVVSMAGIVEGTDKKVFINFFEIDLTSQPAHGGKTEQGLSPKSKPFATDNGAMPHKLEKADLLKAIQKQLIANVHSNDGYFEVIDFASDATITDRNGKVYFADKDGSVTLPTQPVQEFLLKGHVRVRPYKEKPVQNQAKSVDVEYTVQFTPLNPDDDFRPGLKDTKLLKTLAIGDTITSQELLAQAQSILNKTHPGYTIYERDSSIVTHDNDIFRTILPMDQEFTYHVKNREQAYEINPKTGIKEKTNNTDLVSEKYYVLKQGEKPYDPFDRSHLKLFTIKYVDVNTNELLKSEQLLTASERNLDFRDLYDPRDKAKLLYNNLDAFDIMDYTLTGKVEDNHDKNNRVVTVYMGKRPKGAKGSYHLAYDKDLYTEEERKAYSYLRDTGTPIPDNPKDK

Streptococcus = assay: Group A Streptococcus viability loss, dose response, counter-screen for streptokinase expression inhibitor project, luminescence, BacTiterGlo (AID 1915); format: functional, organism-based;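 note: potency for reduction of bacterial viability or growth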

COc1cccc2sc(Nc3nc(-c4ccncc4)cs3)nc12
EC50 [1]: 3.2 µM (active) | EC50 [2]: 0.601 µM (active) | EC50 [3]: 2.41 µM (active) | EC50 [4]: 3.65 µM (active)

O=C(CN1CCCCCC1)NN(Cc1ccccc1)c1ccccc1
IC50 [5]: 301 µM (active)

CCN1C(=O)/C(=C/c2ccc(OC)c(OC)c2)N=C1SCC(=O)NCc1ccco1
IC50 [6]: > 66 µM (inactive) | IC50 [7]: > 66 µM (inactive)

CCOP(=O)(OCC)c1cccc(OP(=O)(c2cccc([N+](=O)[O-])c2)c2cccc([N+](=O)[O-])c2)c1
EC50 [8]: > 195 µM (not active)

O=C(CN1CCN(C/C=C/c2ccccc2)CC1)Nc1ccccc1C(=O)NC1CC1
IC50 [5]: 90.5 µM (active)

C1CC2CN(c3nc4nonc4nc3N3CCSCC3)CCN2C1 (stereo not given)
IC50 [6]: > 66 µM (inactive) | IC50 [7]: > 66 µM (inactive)

CS(=O)(=O)N(Cc1ccccc1)c1ccc(C(=O)NCCSCc2ccco2)cc1
IC50 [6]: > 66 µM (inactive) | IC50 [7]: > 66 µM (inactive)

Cc1ccc(/C=C/C(=O)Nc2nn[nH]n2)o1
IC50 [6]: > 66 µM (inactive) | IC50 [7]: > 66 µM (inactive)

COc1ccc(C(=O)N2CCN=C2SCc2cccnc2)cc1OC
EC50 [8]: > 195 µM (not active)

CC(=O)N1CCC[C@@]2(CCN(Cc3ccccc3)C2)C1
AC50 (Cytochrome P450 2D6): 15.8 µM (inconclusive) | AC50 (Cytochrome P450 3A4): 39.8 µM (inconclusive)

c1ccc2nc(C3=NCCN3)ccc2c1
AC50 (Cytochrome P450 2D6): 20 µM (inconclusive)

O=C(Nc1ccc(OC(F)F)c(Cl)c1)Nc1ccc2c(c1)OCO2
AC50 [9]: 2.04 µM (active)

COc1ccc(-c2cc(C(=O)Nc3ccc(O)cc3)c3ccccc3n2)cc1OC
IC50 [5]: 159 µM (active)

CCCN1CCc2c(sc(NC(=O)c3ccc(S(=O)(=O)N(C)c4ccccc4)cc3)c2C(=O)NC)C1
AC50 [9]: 3.26 µM (active)

CCN(c1ccccc1)S(=O)(=O)c1c[nH]cn1
EC50 [8]: > 195 µM (not active)

CS(=O)(=O)N1CCN(c2ccccc2NC(=O)c2ccc(Br)o2)CC1
AC50 (Cytochrome P450 2C19): 39.8 µM (inconclusive) | AC50 (Cytochrome P450 2D6): 22.4 µM (inconclusive)

CCOC(=O)N1CCN(S(=O)(=O)c2ccc3c(c2)OCC(=O)N3)CC1
EC50 [8]: > 195 µM (not active)

CCN(CCS(=O)(=O)c1ccc(Cl)cc1)C(=O)Nc1ccccc1
EC50 [8]: > 195 µM (not active)

C/C(CCN1CCCc2nc(C)c(C)cc21)=N\O[C@@H](C)c1cn([C@H](CO)Cc2ccccc2)nn1
AC50 (Cytochrome P450 2D6): 3.98 µM (inconclusive)

Cc1csc(=O)n1CCC(=O)OCC(=O)NNC(=O)c1ccc(Cl)cc1
IC50 [6]: > 66 µM (inactive) | IC50 [7]: > 66 µM (inactive)

Cc1cc(C)cc(NC(=O)Nc2ccc(-n3ccc(C(F)(F)F)n3)cc2)c1
AC50 [9]: 1.61 µM (active)

NN=C(S)NC1CC2CC1C1C=CCC21 (stereo not given)
EC50 [8]: > 195 µM (not active)

CC(C)NC(=O)N1CCCC2(CCN(C(=O)c3csnn3)CC2)C1
AC50 (Cytochrome P450 2D6): 12.6 µM (inconclusive) | AC50 (Cytochrome P450 3A4): 25.1 µM (inconclusive)

O=C(CN1CCc2ccccc21)NC(=O)NCc1ccco1
AC50 (Cytochrome P450 2D6): 14.1 µM (inconclusive) | AC50 (Cytochrome P450 3A4): 28.2 µM (inconclusive)

Cc1nc2cc(C(=O)O)ccc2s1
IC50 [6]: > 66 µM (inactive) | IC50 [7]: > 66 µM (inactive)

Nc1ccc2c(c1)Oc1ccccc1C=C2
AC50 [9]: > 195 µM (inactive)

O=c1c(-c2cccs2)nc2cnc(N3CCNCC3)nc2n1CCc1ccccc1
AC50 (Cytochrome P450 2D6): 25.1 µM (inconclusive)

Cc1ccc(Cl)cc1NC(=O)C1COc2ccccc2O1 (stereo not given)
EC50 [8]: > 195 µM (not active)

Cc1ccc(C(c2sc3ncnn3c2O)N2CC(C)CC(C)C2)cc1 (stereo not given)
EC50 [8]: > 195 µM (not active)

FC(F)(F)c1ccccc1-c1nc(NCc2cccs2)c2ccccc2n1
AC50 (Cytochrome P450 2D6): 25.1 µM (inconclusive)

CCOC(=O)CSC1=N/C(=C\c2cc(OC)c(OC)c(OC)c2)C(=O)N1C
IC50 [6]: > 66 µM (inactive) | IC50 [7]: > 66 µM (inactive)

c1ccc(Cc2nn3c(-c4ccncc4)nnc3s2)cc1
IC50 [6]: > 66 µM (inactive) | IC50 [7]: > 66 µM (inactive)

CCOC(=O)C(CC)Sc1nc2c(c(=O)[nH]c(=O)n2C)n1CCc1ccccc1 (stereo not given)
IC50 [6]: > 66 µM (inactive) | IC50 [7]: > 66 µM (inactive)

O=C(c1cc2c(s1)-c1ccccc1OC2)N1CCN(c2ccccc2)CC1
EC50 [8]: > 195 µM (not active)

Cc1cc(C(=O)NC2CCCN(Cc3ccc(Cl)cc3)C2)n(C)n1 (stereo not given)
EC50 [8]: > 195 µM (not active)

NC(=O)CC(NC(=O)Cc1ccc(Br)cc1)c1ccc(NCc2cc(F)ccc2F)c([N+](=O)[O-])c1 (stereo not given)
AC50 [9]: 2.52 µM (active)

COCC(=O)N1CCC2(CCCN(c3ncccn3)C2)CC1
AC50 (Cytochrome P450 2D6): 20 µM (inconclusive)

O=C(/C=C/c1ccco1)NC(=S)Nc1ccc(N2CCCC2)cc1
IC50 [6]: > 66 µM (inactive) | IC50 [7]: > 66 µM (inactive)

CCOc1cc(NC(=O)c2ccccn2)c(OCC)cc1NC(=O)c1ccccc1
AC50 [9]: 24.4 µM (active)

CCCSc1nnc(CNS(=O)(=O)c2ccc(C)cc2)n1C
EC50 [8]: > 195 µM (not active)

CCOc1ccc(-n2c(SCC(=O)Nc3ccc(OC)cc3)nc3c(c2=O)SCC3)cc1
AC50 (Cytochrome P450 2D6): 15.8 µM (inconclusive) | AC50 (Cytochrome P450 3A4): 7.94 µM (inconclusive) | AC50 (Cytochrome P450 2C9): 3.55 µM (inconclusive)

Nc1ccc(N=Nc2ccccc2)c2ccccc12
EC50 [10]: 8.03 µM (active) | EC50 (Streptokinase A): > 150 µM (not active) | EC50 (Streptococcus): 9.13 µM (active) | AC50 [9]: 6.49 µM (active)

CCN1C(=O)/C(=C2\SC(=S)N(c3c(C)n(C)n(-c4ccccc4)c3=O)C2=O)c2ccccc21
IC50 [6]: > 66 µM (inactive) | IC50 [7]: > 66 µM (inactive)

O=C(NCCN1CCN(Cc2ccccc2)CC1)C1c2ccccc2C(=O)N2CCc3ccccc3C12 (stereo not given)
AC50 (Cytochrome P450 2C19): 39.8 µM (inconclusive) | AC50 (Cytochrome P450 2D6): 11.2 µM (inconclusive)

COc1cc2sc(-c3ccccc3OC)c(-c3ccc(O)cc3)c2cc1OC
AC50 [9]: 2.32 µM (active)

C=C(C)c1cccc(C(C)(C)NC(=O)Nc2cc(C)ccc2OC)c1
AC50 (Cytochrome P450 2D6): 12.6 µM (inconclusive)

Cc1ccc(S(=O)(=O)Nc2cc(C)c(O)c(Sc3nnc(C)[nH]3)c2)cc1
IC50 [6]: > 66 µM (inactive) | IC50 [7]: > 66 µM (inactive)

CC1=C(C(=O)OCc2ccccc2)C(c2ccc([N+](=O)[O-])cc2)NC(=O)N1CCCCCC(=O)O (stereo not given)
AC50 (Cytochrome P450 2D6): 20 µM (inconclusive) | AC50 (Cytochrome P450 3A4): 10 µM (inconclusive)

CCN(CC)c1ccc(/C=N/NC(=O)c2cc3ccccc3[nH]2)cc1
IC50 [5]: 146 µM (active)
